Test [1] concerns Frankliniella occidentalis. Description: Y-tube olfactometer bioassay. The format is in vivo. The following applies: for MAC (%) = Minimum Active Concentration to elicit a response from thrips (P < 0.05): 1 µl undiluted or diluted in hexane; for % Response: percentage of thrips to walk up odour-laden arm: same cell prints a '(t value)' in brackets; for Behaviour-modifying activity towards Frankliniella occidentalis (in words): text statements (Table 2). As to the method:
The thrips behaviour-modifying activity of a compound may be evaluated in a glass Y-tube olfactometer following the method described by de Kogel et al. (de Kogel, W. J., Koschier, E. H. and Visser, J. H. Proc. Exper. & Appl. Entomol., N. E. V. Amsterdam, (1999) 10, 131-135.) and Koschier et al. (Koschier, E. H., De Kogel, W. J. and Visser, J. H. (2000) Jounrnal of Chemical Ecology, 26, 2643-2655).
The olfactory behaviour of thrips toward volatile compounds was evaluated in a glass Y-tube olfactometer following the method described by de Kogel et al. (de Kogel, W. J., Koschier, E. H. and Visser, J. H. Proc. Exper. & Appl. Entomol., N. E. V. Amsterdam, (1999) 10, 131-135.) and Koschler et al. (Koschier, E. H., De Kogel, W. J. and Visser, J. H. (2000) Journal of Chemical Ecology, 26, 2643-2655.). The Y-tube has two branching arms at an angle of 45° leading into a single tube, all 60 mm long, with an internal diameter of 5 mm. The arms of the Y-tube were connected to glass Wheaton Micro Kit® adapters that were in turn attached to 4 ml glass vials each containing a 1 cm^2 piece of filter paper (Whatman No. 1). The Y-tube and Wheaton apparatus were placed in a grey-box (to prevent external stimuli influencing thrips' behaviour), located in a darkened, air-conditioned room (22±3° C.). The Y-tube was placed at an inclining position of 25° between the Y-tube and horizontal plane and illuminated from above by a halogen lamp (780 lux). One microliter of the volatile compounds, either undiluted or diluted in hexane (95%, Pronalys AR), was applied to filter paper in one vial, while 1 μl of hexane was applied to filter paper held in the second vial. Air was drawn through activated charcoal before entering the Wheaton apparatus and Y-tube using a suction pump (AR Harris Co. Ltd, Christchurch) producing an airflow of 5 cm/s through each arm and 10 cm/s at the base of the Y-tube. Air was drawn through for 30 min before introducing the first thrips. Connections between the activated charcoal, Wheaton apparatus, Y-tube and suction pump consisted of silicone tubing.
An individual female Frankliniella occidentalis thrips of unknown age, that had been starved overnight, was released into the Y-tube using a small aspirator. The aspirator was made by placing a 1 ml pipette tip over the end of silicone tubing (5 mm diameter) the end of which was covered with fine mesh; the pipette tip was cut so it projected 5 mm beyond the end of the silicone tubing. A thrips was sucked up into the pipette tip, which was then placed at the base of the Y-tube. Most thrips walked up into the Y-tube within a few seconds, at which time the silicone air suction tubing was reconnected to the glass Y. The choice between clean or odour laden airflow was recorded when the thrips reached the far end of one arm and only those thrips that made the choice within 3 min were recorded. After every 5 thrips the Y-tube and Wheaton apparatus were rotated […] to avoid position effects. After 25 choices were recorded, the Y-tube and Wheaton apparatus were thoroughly cleaned with acetone (99.5%, BDH) and allowed to dry before repeating the experiment. Each compound and dilution was replicated 3 times.

Test [2] deals with Frankliniella occidentalis. Particulars: MacDonald et al. 2002; cited from earlier work.
In test [3] the test system is Thrips obscuratus. Description: Field trials with baited water traps. The format is in vivo. The following applies: for Average ratio of female thrips caught relative to water traps (95% CI): female Thrips obscuratus, field water traps, 1 ml compound, 24 or 48 h, * = P < 0.05 vs control trap, brackets = backtransformed 95% CI. An excerpt: (§1) Water traps were placed out into a field comprising several species of grasses, white clover (Trifolium repens L.) and several weed species (≈100 mm in height). Grass and cereal fields surrounded the field trial area on three sides and poplar (Poplar nigra L.) trees on the other, on the Canterbury Agricultural Research Centre campus. Each field trial consisted of five replicates of five treatments including a water control, positive control compound (ethyl nicotinate, ethyl isonicotinate, or benzaldehyde, Table 1) and three test compounds set out in the field in a grid (10×10 m) using a Latin square design with the trial area at least 100 m from the field boundary/shelter belt. White plastic containers (2 L capacity, 16×16×8.5 cm) containing approximately 1.7 L water, 0.4 ml of formalin (to prevent fungal growth) and 0.08 ml tween were placed above the crop canopy on inverted white (2 L capacity, 16×16×8.5 cm) or black plastic containers (24 cm diameter, 13 cm tall). For each treatment, 1 ml of a compound or water was added to a glass vial (12×32 mm screw thread vial) containing a 4.5 cm^2 piece of rolled filter paper (Whatman No. 1) that projected 1 cm above the top of the vial, creating a wick. The glass vial was suspended above the water in the centre of the trap using wire (0.5 mm diameter). The vials were removed after 24 or 48 h and the containers were sealed for transport to a laboratory. The contents from a water trap were poured through a sieve (250 μm mesh) and all insects were washed into a 50 ml Schott bottle within 24 h of collecting them from the field. All thrips were pipetted from each water trap sample and counted. Thrips were mounted on to slides using polyvinyl alcohol glue (1 part polyvinyl alchol: 4 parts water, 1 part lactic acid: 1.25 parts phenyl) from each trap using the following subsample method: less than 50 thrips, all thrips were mounted on to a slide; 50 to 100 thrips, a subsample of 25 thrips were mounted on to a slide; more than 100 thrips, a subsample of 50 thrips were mounted on to a slide. The slides were examined under 100× magnification using a compound microscope to identify thrips species. Subsampled thrips were sexed and identified to species according to Mound and Walker (Mound, L. A. and Walker, A. K. 1982. Terebrantia (Insecta: Thysanoptera). Fauna of New Zealand No. 1.). The mean number of each species for each treatment was calculated by multiplying the proportion of each species within a subsample with the total number of thrips counted in each water trap.

Test [4] concerns Frankliniella occidentalis. Description: Greenhouse trials with water traps or yellow sticky traps. Type of test: in vivo. The following applies: 24 h, capsicum greenhouse, t-value in brackets in same cell. The source says: Greenhouse trials were undertaken using water traps similar to those used in the field trials (Example 2), or yellow sticky traps (Veg-Gro Supplies Ltd, Auckland) to examine the response of thrips to volatile compounds. The greenhouse, located in Auckland, is ≈88×200 m, constructed of glass, and is used to grow capsicum (Capsicum annuum var. Special, Fiesta, Boogie and Stirit). Water traps were placed 20 to 24 m apart within a row and 24 m apart between rows. There were 6 baited water traps for each compound tested and 6 water-only traps randomly positioned in a 6×2 grid in the greenhouse. Traps were positioned just above the crop canopy. Water traps (2 L containers, 16×16×8.5 cm) were assembled as described in Example 2 and left in the greenhouse for 24 h, after which time the containers were sealed for transport to a laboratory. Insects from each water trap were transferred to 5 ml glass tubes containing 75% ethanol within 24 h of collecting them from the greenhouse. Catches from each treatment were analysed under a stereomicroscope (100×) and the proportion of Frankliniella occidentalis was determined.
Yellow sticky traps (24.4×20 cm) were treated with a compound or water using a 30 ml spray mist dripulator (Arthur Holmes, Wellington) held 10 cm away from the sticky trap. Four sprays were applied to each side, coating the sticky trap in approximately 1 ml of water or compound. Sticky traps sprayed with the same treatment were separated using black metal foldback clips (19 mm, Celco), suspended within a cardboard box (29.5×22.3×30.2 cm), which was in turn sealed within a plastic bag for transport to the greenhouse. Traps were suspended in the greenhouse just above the crop canopy within 3 h after spraying, using the same layout as for the water traps (20 to 24 m apart within a row, 24 m between rows, in a 6×2 grid). After 24 h the traps were collected by wrapping each trap in plastic wrap for transport to the laboratory. The total number of thrips on the traps were counted using 10× magnification. Thrips were removed from the sticky traps using De-Solv-it® and Johnsons baby oil®. A subsample from each treatment was further analysed under a stereomicroscope (100×) and the proportion of Frankliniella occidentalis was determined.

Test [5] deals with Thrips tabaci. Description: Field trials with baited water traps. The format is in vivo. The following applies: field trials (Table 1).
From the text: as §1

Where [6] appears, read: female Frankliniella occidentalis, Y-tube.
[7] abbreviates: female Frankliniella occidentalis.
Setting [8] is: Yellow sticky trap, about 1 ml sprayed, >95% of thrips caught were Frankliniella occidentalis.
Setting [9] is: Water trap, around 66% of thrips caught were Frankliniella occidentalis.

The structures appear in SMILES notation.

For the molecule `N#Cc1ccncc1` [4-Cyanopyridine], the “Comment (repellant)” value in test [1] (setting [6]) is reported as “Repellant”. In test [1] (setting [7]), the “MAC (%) = Minimum Active Concentration to elicit a response from thrips (P < 0.05)” value is given as less than 100% and the “% Response: percentage of thrips to walk up odour-laden arm” value (from here on “% Response: percentage of thrips”) is 38.7 (0.026) %. In test [1], the “Behaviour-modifying activity towards Frankliniella occidentalis (in words)” value is listed as “thrips-repellant activity”.

For `O=Cc1ccncc1` [4-Formylpyridine], the “Comment: concentration above which the compound is repellant” value in test [1] (female Frankliniella occidentalis, Y-tube, no unit in the cell (MAC column is in %)) is reported as “Repellant > 0.01”. For the same molecule, in test [1] (setting [7]), the “MAC (%) = Minimum Active Concentration to elicit a response from thrips (P < 0.05)” value is 0.001% and the “% Response: percentage of thrips” value is reported as 66.7 (0.002) %. For the same molecule, the “Activity towards Frankliniella occidentalis at high concentration” value in test [1] (high concentration) was “repellant”. In addition, the “Activity towards Frankliniella occidentalis at low concentration” value in test [1] (low concentration) is reported as “attractant”.

As to `CC(=O)Sc1ccncc1` [4-Pyridyl thioacetate], the “Comment (repellant)” value in test [1] (setting [6]) is reported as “Repellant”. Moreover, in test [1] (setting [7]), the “MAC (%) = Minimum Active Concentration to elicit a response from thrips (P < 0.05)” value is on record as less than 100% and the “% Response: percentage of thrips” value is listed as 26.7 (<0.001) %. Moreover, the “Behaviour-modifying activity towards Frankliniella occidentalis (in words)” value in test [1] is “thrips-repellant activity”.

Turning to `CCCCCCCCCCOC(C)=O` [Decyl acetate], the “Repellant activity towards Frankliniella occidentalis (literature, alarm pheromones)” value in test [2] is on record as “repellant activity”.

With `CCCCCCCCCCOC(=O)c1ccncc1` [Decyl isonicotinate], the “Average ratio of female thrips caught relative to water traps (95% CI)” value in test [3] was 14.9 (0.3, 739.5).

Regarding `CC(C)N(C(=O)c1ccncc1)C(C)C` [Di-iso-Propyl isonicotinate, diisopropyl isonicotinamide], in test [1] (setting [7]), the “MAC (%) = Minimum Active Concentration to elicit a response from thrips (P < 0.05)” value is given as less than 100% and the “% Response: percentage of thrips” value is listed as 81.3 (<0.001) %. Also, the “Behaviour-modifying activity towards Frankliniella occidentalis (in words)” value in test [1] was “attractant”.

Regarding `CCOC(=O)c1ccnc(Cl)c1` [Ethyl 2-chloro-isonicotinate], the “Average ratio of thrips caught relative to water treated traps” value in test [4] (setting [8]) is 1.8 (2.8). Besides, in test [1] (setting [7]), the “MAC (%) = Minimum Active Concentration to elicit a response from thrips (P < 0.05)” value was 0.0001% and the “% Response: percentage of thrips” value is on record as 65.3 (0.005) %. Further, the “Behaviour-modifying activity towards Frankliniella occidentalis (in words)” value in test [1] is reported as “strong attractant”.

On to `CCC(=O)c1ccncc1` [Ethyl 4-pyridyl ketone], for which, in test [1] (setting [7]), the “MAC (%) = Minimum Active Concentration to elicit a response from thrips (P < 0.05)” value was found to be 1% and the “% Response: percentage of thrips” value is 68.0 (0.001) %. Also, the “Attractancy to Thrips tabaci (in words)” value in test [5] is on record as “attractants”.

In the case of `CCOC(=O)c1ccncc1` [Ethyl isonicotinate], the “Average ratio of thrips caught relative to water treated traps” value in test [4] (setting [9]) is 2.2 (2.8); in test [4] (setting [8]) it was 2.6 (3.9). Further, in test [1] (setting [7]), the “MAC (%) = Minimum Active Concentration to elicit a response from thrips (P < 0.05)” value amounted to 0.001%. For the same molecule, the “% Response: percentage of thrips” value in test [1] (setting [7]) is given as 60.0 (0.043) %.

`CC(C)OC(=O)c1ccncc1` [Isopropyl isonicotinate]: in test [1] (setting [7]), the “MAC (%) = Minimum Active Concentration to elicit a response from thrips (P < 0.05)” value was found to be 1% and the “% Response: percentage of thrips” value is given as 66.7 (0.002) %.

In the case of `COC(=O)c1ccncc1` [Methyl isonicotinate], the “Average ratio of thrips caught relative to water treated traps” value in test [4] (setting [9]) is 4.3 (5.7); in test [4] (setting [8]), 3.7 (8.1). Besides, the “MAC (%) = Minimum Active Concentration to elicit a response from thrips (P < 0.05)” value in test [1] (setting [7]) worked out at 0.0001%. In test [1] (setting [7]), the “% Response: percentage of thrips” value is given as 74.7 (<0.001) %.

Take `c1cc(C2OCCO2)ccn1` [Pyridine, 4-(1,3-dioxalan-2-yl), 4-(1,3-Dioxolan-2-yl)pyridine]: the “MAC (%) = Minimum Active Concentration to elicit a response from thrips (P < 0.05)” value in test [1] (setting [7]) is listed as 1%. In test [3], the “Average ratio of female thrips caught relative to water traps (95% CI)” value was 16.6 (0.3, 827.2).

`CCCCCCCCCCCCOC(C)=O` [dodecyl acetate]: the “Repellant activity towards Frankliniella occidentalis (literature, alarm pheromones)” value in test [2] is “repellant activity”.

Regarding `CCCCCCOC(=O)c1ccncc1` [hexyl isonicotinate], the “Attractancy to Thrips tabaci (in words)” value in test [5] is “not found to be significantly attractive”. Further, in test [3], the “Attractancy to Thrips obscuratus (in words)” value was “not found to be significantly attractive”.

As to `C=C(C)CCOC(=O)c1ccncc1` [isopentenyl isonicotinate], the “Behaviour-modifying activity towards Frankliniella occidentalis (in words)” value in test [1] was “not found to be significantly attractive or repulsive”.

On to `CCCC(=O)c1ccncc1` [n-Propyl 4-pyridyl ketone], for which, in test [1] (setting [7]), the “MAC (%) = Minimum Active Concentration to elicit a response from thrips (P < 0.05)” value is 100% and the “% Response: percentage of thrips” value is 54.7 (0.282) %. Further, the “Behaviour-modifying activity towards Frankliniella occidentalis (in words)” value in test [1] was “attractant”.

For the molecule `CCCOC(=O)c1ccncc1` [n-Propyl isonicotinate], in test [1] (setting [7]), the “MAC (%) = Minimum Active Concentration to elicit a response from thrips (P < 0.05)” value worked out at 0.1% and the “% Response: percentage of thrips” value is 61.3 (0.026) %.

Source of the values: patent US8962003B2, “Insect behaviour modifying compounds” (The New Zealand Institute for Plant and Food Research …, priority 2003, dated 2015).
